Laboratory results taken from ChEMBL document CHEMBL1159386, “New bioactive coumarins from Kielmeyera albopunctata” (2003).
Converted amounts (≈) assume the structure as drawn.

Assays:
Format in all cases: functional
Lu1 = assay: Cytotoxicity against human Lu1 cells; conditions: read-out: ED50 (the source's name)
Trypanosoma cruzi [1] = assay: Antitrypanosomal activity against Trypanosoma cruzi trypomastigotes assessed as parasite lysis 500 ug/mL after 24 hrs
Col2 = assay: Cytotoxicity against human Col2 cells; conditions: read-out: ED50 (the source's name)
LNCaP = assay: Cytotoxicity against human LNCAP cells; conditions: read-out: ED50 (the source's name)
KB = assay: Cytotoxicity against human KB cells; conditions: read-out: ED50 (the source's name)
Trypanosoma cruzi [2] = assay: Antitrypanosomal activity against Trypanosoma cruzi trypomastigotes assessed as parasite lysis 125 ug/mL after 24 hrs
Trypanosoma cruzi [3] = assay: Antitrypanosomal activity against Trypanosoma cruzi trypomastigotes assessed as parasite lysis 7.5 ug/mL after 24 hrs

SMILES | EC50 (Lu1) | Activity (Trypanosoma cruzi [1]) | EC50 (Col2) | EC50 (LNCaP) | EC50 (KB) | Activity (Trypanosoma cruzi [2]) | Activity (Trypanosoma cruzi [3])
CC(C)=CCc1c(O)c(C(=O)CC(C)CO)c2oc(=O)cc(-c3ccccc3)c2c1O (stereo not given) | 19.8 µg/mL (≈ 46.9 µM) | 98% | 17.4 µg/mL (≈ 41.2 µM) | 15.9 µg/mL (≈ 37.6 µM) | 17.7 µg/mL (≈ 41.9 µM) |  | 
CCC(C)c1cc(=O)oc2c(C(=O)CC(C)CO)c(O)c(CC=C(C)C)c(O)c12 (stereo not given) | 19.4 µg/mL (≈ 48.2 µM) | 100% | 13.1 µg/mL (≈ 32.5 µM) | 14 µg/mL (≈ 34.8 µM) | 15.8 µg/mL (≈ 39.3 µM) | 80% | 
CCC(C)c1cc(=O)oc2c(C(=O)CC(C)CO)c(O)c3c(c12)OC(C(C)(C)O)C3 (stereo not given) | > 20 µg/mL |  | > 20 µg/mL | > 20 µg/mL | > 20 µg/mL |  | 
Cc1c2ccncc2c(C)c2c1[nH]c1ccccc12 [ELLIPTECINE] | 0.02 µg/mL (≈ 0.0812 µM) |  | 0.3 µg/mL (≈ 1.22 µM) | 0.8 µg/mL (≈ 3.25 µM) | 0.04 µg/mL (≈ 0.162 µM) |  | 
CN(C)c1ccc(C(=C2C=CC(=[N+](C)C)C=C2)c2ccc(N(C)C)cc2)cc1.[Cl-] [GENTIAN VIOLET] |  |  |  |  |  |  | 50%
